Numbers after ± are expanded uncertainties.
Assays:
[1] = Crystal; DTA
[2] = Molar enthalpy of transition or fusion; conditions: Crystal; DSC

Row | SMILES | Normal melting temperature [1] [°C] | Molar enthalpy of transition or fusion [2] [kcal/mol]
1 | COC(=O)N(O)c1ccccc1COc1ccn(-c2ccc(Cl)cc2)n1 | 143.30 ± 1.1 | 12.3 ± 0.311
2 | COC(=O)N(OC)c1ccccc1COc1ccn(-c2ccc(Cl)cc2)n1 [Pyraclostrobin] | 60.60 ± 1.1 | 7.22 ± 0.239
